Assay results from US5618813A, “Benzo[5.6]pyrano[2.3.4-ij]quinolizine and benzo[5.6]thiopyrano[2.3.4-ij]quinolizine derivatives as antibacterial and antineoplastic agents” (Abbott Laboratories, priority 1995, dated 1997).
Converted amounts (≈) assume the structure as drawn. Where a name gives a salt, the structure may show the parent alone. Read-outs that look alike come from different tables or passages of the source.

Assays:
Test in all cases: In vitro antibacterial activity (MIC, agar dilution)
Assay type in all cases: cell-based
Pseudomonas cepacia 296I = conditions: Burkholderia cepacia
Experimental: (§1) Each plate was inoculated with 1:100 (or 1:10 for slow-growing strains, primarily Micrococcus and Streptococcus) dilutions of up to 32 different microorganisms, using a Steers replicator block calibrated to deliver approximately 10^4 colony forming units (CFUs). The inoculated plates were incubated at from about 35° C. to about 37° C. for approximately 20-24 hours. In o addition, a control plate using BHI agar containing no test compound was prepared and incubated at the beginning and at the end of each test. The quinolone antibacterial ciprofloxacin was used as a control ("Cntl").
(§2) The MIC was defined as the lowest concentration of test compound yielding no growth (a slight haze or sparsely isolated colonies at the inoculum spot) as compared to the growth control containing no test compound.

Staph. aureus 5278 = conditions: Staphylococcus aureus
Experimental: as §1, §2

E. coli H560 = conditions: Escherichia coli
Experimental: as §1, §2

P. aeruginosa 2862 = conditions: Pseudomonas aeruginosa
Experimental: as §1, §2

Staph. aureus CMX 553 = conditions: Staphylococcus aureus, CMX553
Experimental: as §1, §2

Staph. aureus NCTC10649 = conditions: Staphylococcus aureus
Experimental: as §1, §2

[1] = system: Strep. pyogenes 930 CONST; conditions: Streptococcus pyogenes
Experimental: as §1, §2

M. luteus ATCC 9341 = conditions: Micrococcus luteus, ATCC9341
Experimental: as §1, §2

[2] = system: Strep. pyogenes 2458 INDUC; conditions: Streptococcus pyogenes
Experimental: as §1, §2

[3] = system: Acinetobacter calcoaceticus CMX 669; conditions: CMX669
Experimental: as §1, §2

P. aeruginosa K799/61 = conditions: Pseudomonas aeruginosa
Experimental: as §1, §2

Candida albicans CCH 442 = conditions: CCH442
Experimental: as §1, §2

Escherichia coli Juhl = system: Escherichia coli Juhl
Experimental: as §1, §2

E. coli DC-2 = conditions: Escherichia coli, DC2
Experimental: as §1, §2

[4] = system: Providencia stuartii CMX 640; conditions: CMX640
Experimental: as §1, §2

Staph. aureus A5177 = conditions: Staphylococcus aureus
Experimental: as §1, §2

M. luteus ATCC 4698 = conditions: Micrococcus luteus, ATCC4698
Experimental: as §1, §2

[5] = system: Klebsiella pneumoniae ATCC 8045; conditions: Klebsiella pneumoniae, ATCC8045
Experimental: as §1, §2

E. coli SS = conditions: Escherichia coli
Experimental: as §1, §2

E. coli KNK 437 = conditions: Escherichia coli, KNK437
Experimental: as §1, §2

P. aeruginosa BMH 10 = conditions: Pseudomonas aeruginosa, BMH10
Experimental: as §1, §2

Staph. aureus ATCC 6538P = conditions: Staphylococcus aureus, ATCC6538P
Experimental: as §1, §2

P. aeruginosa K799/WT = conditions: Pseudomonas aeruginosa
Experimental: as §1, §2

Staph. aureus 642A = conditions: Staphylococcus aureus
Experimental: as §1, §2

Myco. smegmatis ATCC 114 = conditions: Mycolicibacterium smegmatis, ATCC114
Experimental: as §1, §2

Staph. epidermidis 3519 = conditions: Staphylococcus epidermidis
Experimental: as §1, §2

[6] = system: Nocardia asteroides ATCC 9970; conditions: Nocardia asteroides, ATCC9970
Experimental: as §1, §2

[7] = system: Entero. faecium ATCC 8043; conditions: Enterococcus faecium, ATCC8043
Experimental: as §1, §2

P. aeruginosa A5007 = conditions: Pseudomonas aeruginosa
Experimental: as §1, §2

[8] = system: Enter. aerogenes ATCC 13048; conditions: Klebsiella aerogenes, ATCC13048
Experimental: as §1, §2

[9] = system: Strep. agalactiae CMX 508; conditions: Streptococcus agalactiae, CMX508
Experimental: as §1, §2

Strep. bovis A5169 = conditions: Streptococcus equinus
Experimental: as §1, §2

Strep. pyogenes EES61 = conditions: Streptococcus pyogenes
Experimental: as §1, §2

[10] = system: Staph. aureus 1775 Cipro.R.; conditions: Staphylococcus aureus
Experimental: as §1, §2

P. aeruginosa 5263 = conditions: Pseudomonas aeruginosa
Experimental: as §1, §2

[11] = E. coli H560, agar dilution, read-out: MIC
[12] = P. aeruginosa 2862, agar dilution, read-out: MIC
[13] = M. luteus ATCC 9341, agar dilution, read-out: MIC
[14] = Acinetobacter calcoaceticus CMX 669, agar dilution, read-out: MIC
[15] = E. coli DC-2, agar dilution, read-out: MIC
[16] = M. luteus ATCC 4698, agar dilution, read-out: MIC
[17] = E. coli SS, agar dilution, read-out: MIC
[18] = E. coli KNK 437, agar dilution, read-out: MIC
[19] = P. aeruginosa BMH 10, agar dilution, read-out: MIC
[20] = P. aeruginosa K799/WT, agar dilution, read-out: MIC
[21] = P. aeruginosa A5007, agar dilution, read-out: MIC
[22] = Strep. bovis A5169, agar dilution, read-out: MIC
[23] = P. aeruginosa 5263, agar dilution, read-out: MIC
[24] = Entero. faecium ATCC 8043, agar dilution, read-out: MIC

Compound | MIC (Pseudomonas cepacia 296I) [µg/mL] | MIC (Staph. aureus 5278) [µg/mL] | MIC (E. coli H560; [11]) [µg/mL] | MIC (P. aeruginosa 2862; [12]) [µg/mL] | MIC (Staph. aureus CMX 553) [µg/mL] | MIC (Staph. aureus NCTC10649) [µg/mL] | MIC [1] [µg/mL] | MIC [2] [µg/mL] | MIC (P. aeruginosa K799/61) [µg/mL] | MIC (Escherichia coli Juhl) [µg/mL] | MIC [4] [µg/mL] | MIC (Staph. aureus A5177) [µg/mL] | MIC [5] [µg/mL] | MIC (Staph. aureus ATCC 6538P) [µg/mL] | MIC (Staph. aureus 642A) [µg/mL] | MIC (Staph. epidermidis 3519) [µg/mL] | MIC [8] [µg/mL] | MIC [9] [µg/mL] | MIC (Strep. pyogenes EES61) [µg/mL] | MIC [10] [µg/mL] | other results
N[C@H]1CCC[C@H]2CN(c3c(F)cn4c(=O)c(C(=O)O)cc5c4c3Oc3ccccc3-5)C[C@H]21 (relative stereo) [Example 3, 1-(3aα, 4β, 7aα-4-aminooctahydro-[1H]-isoindol-2-yl)-2-fluoro-5H-5-oxo-benzo[5.6]pyrano[2.3.4-ij]quinolizine-6-carboxylic acid hydrochloride] | > 100 | 0.78 | 6.2 | > 100 | 0.78 | 0.78 | 0.2 | 0.39 | 1.56 | 6.2 | 100 | 0.78 | 1.56 | 0.78 | 0.78 | 0.78 | 25 | 0.39 | 0.39 | 3.1 | MIC (M. luteus ATCC 9341; [13]): 0.39 µg/mL; MIC [3, 14]: 12.5 µg/mL; MIC (Candida albicans CCH 442; Candida albicans CCH 442, agar dilution, read-out: MIC): > 100 µg/mL; MIC (E. coli DC-2; [15]): 100 µg/mL; MIC (M. luteus ATCC 4698; [16]): 0.78 µg/mL; MIC (E. coli SS; [17]): 0.78 µg/mL; MIC (E. coli KNK 437; [18]): 25 µg/mL; MIC (P. aeruginosa BMH 10; [19]): 100 µg/mL; MIC (P. aeruginosa K799/WT; [20]): > 100 µg/mL; MIC (Myco. smegmatis ATCC 114): 0.78 µg/mL; MIC [6]: 1.56 µg/mL; MIC [7]: 1.56 µg/mL; MIC (P. aeruginosa A5007; [21]): > 100 µg/mL; MIC (Strep. bovis A5169; [22]): 0.39 µg/mL; MIC (P. aeruginosa 5263; [23]): > 100 µg/mL
O=C(O)c1cn(C2CC2)c2cc(N3CCNCC3)c(F)cc2c1=O [Ciprofloxacin, ciprofloxacin, reference compound] | 3.1 (≈ 9.36 µM) | 0.39 (≈ 1.18 µM) | – | – | 0.78 (≈ 2.35 µM) | 0.39 (≈ 1.18 µM) | 0.78 (≈ 2.35 µM) | 0.39 (≈ 1.18 µM) | 0.02 (≈ 0.0604 µM) | 0.01 (≈ 0.0302 µM) | 0.78 (≈ 2.35 µM) | 0.39 (≈ 1.18 µM) | 0.02 (≈ 0.0604 µM) | 0.2 (≈ 0.604 µM) | 0.39 (≈ 1.18 µM) | 0.39 (≈ 1.18 µM) | 0.02 (≈ 0.0604 µM) | 0.39 (≈ 1.18 µM) | 0.78 (≈ 2.35 µM) | > 100 | MIC (E. coli H560; H560): 0.01 µg/mL (≈ 0.0302 µM); MIC (P. aeruginosa 2862; 2862): 12.5 µg/mL (≈ 37.7 µM); MIC (M. luteus ATCC 9341): 1.56 µg/mL (≈ 4.71 µM); MIC ([3]; Acinetobacter calcoaceticus): 0.39 µg/mL (≈ 1.18 µM); MIC (Candida albicans CCH 442; Candida albicans): > 100 µg/mL; MIC (E. coli DC-2): 0.2 µg/mL (≈ 0.604 µM); MIC (M. luteus ATCC 4698): 0.78 µg/mL (≈ 2.35 µM); MIC (E. coli SS): 0.005 µg/mL (≈ 0.0151 µM); MIC (E. coli KNK 437): 0.2 µg/mL (≈ 0.604 µM); MIC (P. aeruginosa BMH 10): 0.1 µg/mL (≈ 0.302 µM); MIC (P. aeruginosa K799/WT; K799/WT): 0.1 µg/mL (≈ 0.302 µM); MIC (Myco. smegmatis ATCC 114): 0.78 µg/mL (≈ 2.35 µM); MIC [6]: 12.5 µg/mL (≈ 37.7 µM); MIC [7, 24]: 0.39 µg/mL (≈ 1.18 µM); MIC (P. aeruginosa A5007; A5007): 0.1 µg/mL (≈ 0.302 µM); MIC (Strep. bovis A5169; A5169): 1.56 µg/mL (≈ 4.71 µM); MIC (P. aeruginosa 5263; 5263): 12.5 µg/mL (≈ 37.7 µM)
O=C(O)c1cc2c3c(c(N4CCOCC4)c(F)cn3c1=O)Oc1ccccc1-2 [Example 1, 1-(1-morpholinyl)-2-fluoro-5H-5-oxo-benzo[5.6]pyrano[2,3.4-ij]quinolizine-6-carboxylic acid] | 100 (≈ 262 µM) | 0.78 (≈ 2.04 µM) | > 100 | > 100 | 0.78 (≈ 2.04 µM) | 0.39 (≈ 1.02 µM) | 6.2 (≈ 16.2 µM) | 6.2 (≈ 16.2 µM) | 12.5 (≈ 32.7 µM) | > 100 | > 100 | 0.78 (≈ 2.04 µM) | 12.5 (≈ 32.7 µM) | 0.78 (≈ 2.04 µM) | 0.78 (≈ 2.04 µM) | 0.39 (≈ 1.02 µM) | > 100 | 3.1 (≈ 8.11 µM) | 3.1 (≈ 8.11 µM) | 1.56 (≈ 4.08 µM) | MIC (M. luteus ATCC 9341; [13]): 1.56 µg/mL (≈ 4.08 µM); MIC [3, 14]: 1.56 µg/mL (≈ 4.08 µM); MIC (E. coli DC-2; [15]): > 100 µg/mL; MIC (M. luteus ATCC 4698; [16]): 0.39 µg/mL (≈ 1.02 µM); MIC (E. coli SS; [17]): 0.39 µg/mL (≈ 1.02 µM); MIC (E. coli KNK 437; [18]): 50 µg/mL (≈ 131 µM); MIC (P. aeruginosa BMH 10; [19]): > 100 µg/mL; MIC (P. aeruginosa K799/WT; [20]): > 100 µg/mL; MIC [7, 24]: 25 µg/mL (≈ 65.4 µM); MIC (P. aeruginosa A5007; [21]): > 100 µg/mL; MIC (Strep. bovis A5169; [22]): 25 µg/mL (≈ 65.4 µM); MIC (P. aeruginosa 5263; [23]): > 100 µg/mL
